Several values for one entry are separate records, joined by “and”; a condition that tells them apart may be missing. Equal entries are not always repeated. Numbers after ± are expanded uncertainties.
settings: 313.15 K; Liquid; Closed cell (Static) method

SMILES | vapor or sublimation pressure
CCOC(C)(C)C [2-ethoxy-2-methylpropane] | 31.62 ± 0.12 kPa and 31.63 ± 0.12 kPa and 31.64 ± 0.12 kPa
CCCCCCC [heptane] | 12.32 ± 0.056 kPa and 12.33 ± 0.056 kPa and 12.31 ± 0.056 kPa
Cc1ccccc1 [toluene] | 7.88 ± 0.041 kPa [middle of 4 runs]
